Results on ten molecules are retold here after PubChem BioAssay (NCI).

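96-well plates; 48 h exposure; 5 concentrations. Endpoints by linear interpolation between flanking doses. Not reached: highest tested concentration assigned. TGI marks complete inhibition of growth.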 Bounds are passed on as bounds.

Test in all cases: growth of human tumour cells (NCI), 48 h
In assay [1] the test system is NCI-H522 lung.
Assay [2] has as its system PC-3 prostate.
For assay [3], the system named is M14 melanoma.
Assay [4] relates to IGROV1 ovarian.
The test system of assay [5] is MALME-3M melanoma.
Assay [6] relates to T-47D breast.
Assay [7] deals with CCRF-CEM leukemia.
Assay [8] has as its system MCF7 breast.
Assay [9] relates to HT29 colon.
Assay [10] concerns ACHN renal.
Assay [11] relates to OVCAR-4 ovarian.
Assay [12] deals with HCC-2998 colon.
The subject of assay [13] is KM12 colon.
Assay [14] concerns SNB-19 CNS.

In the case of `CC1=NN(c2ccc(S(=O)(=O)O)cc2)C2(C1)C(Cl)C(=O)N2c1nc2ccccc2s1` (stereo not given), the TGI in assay [1], in [2], in [3], in [4], in assay [5] and in assay [6] was > 100 µM in each case. Besides, the TGI in assay [7], in assay [8], in assay [9], in assay [10], in assay [11] and in [12] was > 100 µM throughout. The TGI in assay [13] and in assay [14] was > 100 µM in each case.

With `CC(=O)Nc1cc(Cl)cc(Cl)c1O`, the TGI in assay [1], in assay [2], in [3], in assay [4], in [5] and in assay [6] was > 100 µM throughout. The TGI in assay [7], in assay [8], in [9], in assay [10], in assay [11] and in assay [12] was > 100 µM each time. In addition, the TGI in assay [13] and in assay [14] was > 100 µM each time.

Consider `CCCCN=NNc1cn(C2OC(CO)C(O)C2O)c(=O)[nH]c1=O` (stereo not given), for which the TGI in assay [1], in [2], in assay [3], in assay [4], in assay [5] and in assay [6] was > 100 µM in each case. The TGI in [7], in assay [8], in assay [9], in assay [10], in assay [11] and in assay [12] was > 100 µM throughout. Besides, the TGI in [13] and in assay [14] was > 100 µM each time.

With `COC(=O)c1cc(CC2Cc3cc4c(cc3C2=O)CCC4)cc2c1CCC2` (stereo not given), the TGI in [1], in assay [2], in assay [3], in assay [4], in assay [5] and in assay [6] was > 100 µM each time. Besides, the TGI in assay [7], in assay [8], in [9], in assay [10], in [11] and in assay [12] was > 100 µM each time. The TGI in assay [13] and in assay [14] was > 100 µM throughout.

Regarding `O=C1Nc2ccc(Br)cc2/C1=N/S(=O)(=O)O`, the TGI was > 100 µM in [1]; 83.3 µM in [2]; > 100 µM in assay [3]; > 100 µM in assay [4]; 71.4 µM in assay [5]; > 100 µM in assay [6]. Further, the TGI was 35.6 µM in assay [7]; 40 µM in assay [8]; > 100 µM in assay [9]; > 100 µM in assay [10]; 44.1 µM in [11]; > 100 µM in assay [12]. The TGI in assay [13] and in assay [14] was > 100 µM in each case.

On to `C=C1c2nc3ccccc3n2C=C(c2ccccc2)N1c1ccc(Cl)cc1`, for which the TGI was > 100 µM in assay [1]; > 100 µM in assay [2]; > 75.2 µM in [3]; > 89.5 µM in assay [4]; 51.2 µM in assay [5]; > 100 µM in [6]. For the same molecule, the TGI in assay [7] was > 100 µM; in assay [8], > 100 µM; in assay [9], > 100 µM; in assay [10] it was 38.4 µM; in assay [11], 61.6 µM; in assay [12], > 100 µM. The TGI in assay [13] was 66.3 µM; in [14], > 100 µM.

For the molecule `COc1ccc(N2C(=O)C(Cl)C2c2cc3cc(Br)ccc3nc2Cl)cc1` (stereo not given), the TGI in assay [1] was 8.33 µM; in assay [2], 21 µM; in assay [3], 11 µM; in [4], 10.6 µM; in assay [5] it was 10.1 µM; in assay [6], > 25 µM. The TGI in [7] stood at 14.7 µM; in assay [8] it was 13.5 µM; in assay [9], 8.84 µM; in assay [10], 9.64 µM; in assay [11], 9.68 µM; in assay [12], 7.52 µM. The TGI in [13] and in assay [14] was > 25 µM throughout.

With `CC(C)(C)OC(=O)N(O)[C@@H]1CC[C@H](n2cnc3c(N)ncnc32)C1`, the TGI in [1], in assay [2], in assay [3], in [4], in [5] and in assay [6] was > 100 µM throughout. Further, the TGI in [7], in assay [8], in [9], in [10], in assay [11] and in assay [12] was > 100 µM each time. Besides, the TGI in [13] and in assay [14] was > 100 µM in each case.

In the case of `O=Cc1cn(CCCCCCCCn2cc(C=O)c3ccccc32)c2ccccc12`, the TGI in assay [1], in assay [2], in assay [3], in assay [4], in assay [5] and in assay [6] was > 10 µM each time. Besides, the TGI in assay [7], in [8], in assay [9], in assay [10], in assay [11] and in [12] was > 10 µM in each case. Besides, the TGI in [13] and in assay [14] was > 10 µM throughout.

In the case of `Clc1cccc(-c2nc3cccc4c3n2Cc2ncccc2-4)c1`, the TGI in assay [1], in assay [2], in assay [3], in assay [4], in assay [5] and in assay [6] was > 100 µM in each case. Besides, the TGI in assay [7], in assay [8], in assay [9], in [10], in assay [11] and in assay [12] was > 100 µM each time. For the same molecule, the TGI in [13] and in assay [14] was > 100 µM throughout.
